Laboratory results as given in ChEMBL document CHEMBL5614442, “Discovery, synthesis and biological evaluation of novel isoquinoline derivatives as potent indoleamine 2, 3-dioxygenase 1 and tryptophan 2, 3-dioxygenase dual inhibitors” (Eur J Med Chem, 2024).

Legend:
[1] = AUC (0 to t) in male Sprague-Dawley rat at 100 mg/kg, po measured after 8 hrs by LC-MS analysis; type: ADME, organism-based; settings: in vivo
[2] = Toxicity in male C57BL/6 mouse implanted with mouse B16-F10 cells assessed as effect on heart morphology at 25 to 100 mg/kg, ip administered once daily for 14 days by H and E staining based analysis; type: organism-based; settings: in vivo, 336 h, dose 25-100 mg/kg, time 14 day
[3] = target: T1, Indoleamine 2,3-dioxygenase 1 (Homo sapiens, UniProt P14902); settings: dose 0.78-25 µM
Target sequence in this assay (P14902 whole entry, looked up): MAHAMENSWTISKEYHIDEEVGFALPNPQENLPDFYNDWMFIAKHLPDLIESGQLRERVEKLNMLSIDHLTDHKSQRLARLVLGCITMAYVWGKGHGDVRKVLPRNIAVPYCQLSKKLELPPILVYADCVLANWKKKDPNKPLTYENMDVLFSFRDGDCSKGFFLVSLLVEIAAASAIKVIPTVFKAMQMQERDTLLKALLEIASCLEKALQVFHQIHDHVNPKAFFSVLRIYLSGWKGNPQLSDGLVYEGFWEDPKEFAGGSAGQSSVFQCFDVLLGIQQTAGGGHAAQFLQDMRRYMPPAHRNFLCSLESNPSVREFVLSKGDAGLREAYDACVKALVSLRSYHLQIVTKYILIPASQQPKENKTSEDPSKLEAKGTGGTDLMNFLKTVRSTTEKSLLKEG

[4] = target: T1, Indoleamine 2,3-dioxygenase 1; assay: Inhibition of IDO1 in IFN-gamma induced human HeLa cells using L-tryptophan as substrate incubated for 24 hrs by absorbance based microplate analysis; type: cell-based
Target sequence in this assay (P14902 whole entry): as the sequence (P14902 whole entry, looked up) above

HeLa = assay: Cytotoxicity against human HeLa cells assessed as reduction in cell viability at effective concentration incubated for 24 hrs by CCK8 assay; type: toxicity, cell-based
[5] = Tmax in male Sprague-Dawley rat at 20 mg/kg, ip measured after 8 hrs by LC-MS analysis; type: ADME, organism-based; settings: in vivo
[6] = AUC (0 to t) in male Sprague-Dawley rat at 20 mg/kg, ip measured after 8 hrs by LC-MS analysis; type: ADME, organism-based; settings: in vivo
[7] = Volume of distribution in male Sprague-Dawley rat at 20 mg/kg, ip measured after 8 hrs by LC-MS analysis; type: ADME, organism-based; settings: in vivo
[8] = Bioavailability in male Sprague-Dawley rat at 20 mg/kg, ip measured after 8 hrs by LC-MS analysis; type: ADME, organism-based; settings: in vivo
[9] = target: T1, Indoleamine 2,3-dioxygenase 1; assay: Binding affinity to recombinant human IDO1 assessed as equilibrium dissociation constant by SPR analysis
Target sequence in this assay (P14902 whole entry): as the sequence (P14902 whole entry, looked up) above

[10] = target: T1, Indoleamine 2,3-dioxygenase 1; assay: Binding affinity to recombinant human IDO1 assessed as dissociation rate constant at 0.78 to 25 uM by SPR analysis
Target sequence in this assay (P14902 whole entry): as the sequence (P14902 whole entry, looked up) above

[11] = target: T2, Tryptophan 2,3-dioxygenase (Homo sapiens, UniProt P48775)
Target sequence in this assay (P48775 whole entry): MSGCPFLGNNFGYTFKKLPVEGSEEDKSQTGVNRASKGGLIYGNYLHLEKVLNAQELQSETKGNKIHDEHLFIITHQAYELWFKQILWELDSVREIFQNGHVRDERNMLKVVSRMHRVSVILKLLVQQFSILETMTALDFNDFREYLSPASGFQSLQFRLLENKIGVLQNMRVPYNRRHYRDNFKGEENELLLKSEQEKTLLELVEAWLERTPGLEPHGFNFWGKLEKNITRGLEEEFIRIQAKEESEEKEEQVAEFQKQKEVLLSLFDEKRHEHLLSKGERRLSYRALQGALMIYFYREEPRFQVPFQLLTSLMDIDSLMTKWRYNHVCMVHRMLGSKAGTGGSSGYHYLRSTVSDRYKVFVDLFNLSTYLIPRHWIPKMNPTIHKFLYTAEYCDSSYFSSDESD

[12] = Half-life in male Sprague-Dawley rat at 100 mg/kg, po measured after 8 hrs by LC-MS analysis; type: ADME, organism-based; settings: in vivo
[13] = Tmax in male Sprague-Dawley rat at 100 mg/kg, po measured after 8 hrs by LC-MS analysis; type: ADME, organism-based; settings: in vivo
[14] = Toxicity in male C57BL/6 mouse implanted with mouse B16-F10 cells assessed as body weight loss at 25 to 100 mg/kg, ip administered once daily for 14 days; type: organism-based; settings: in vivo, 336 h, dose 25-100 mg/kg, time 14 day
[15] = Oral bioavailability in male Sprague-Dawley rat at 100 mg/kg measured after 8 hrs by LC-MS analysis; type: ADME, organism-based; settings: in vivo
[16] = Clearance in male Sprague-Dawley rat at 20 mg/kg, ip measured after 8 hrs by LC-MS analysis; type: ADME, organism-based; settings: in vivo
[17] = Clearance in male Sprague-Dawley rat at 2 mg/kg, iv measured after 8 hrs by LC-MS analysis; type: ADME, organism-based; settings: in vivo
B16-F10 [18] = assay: Cytotoxicity against mouse B16-F10 cells assessed as reduction in cell viability at effective concentration incubated for 24 hrs by CCK8 assay; type: toxicity, cell-based; settings: b16-f10, 24 h
[19] = Cmax in male Sprague-Dawley rat at 20 mg/kg, ip measured after 8 hrs by LC-MS analysis; type: ADME, organism-based; settings: in vivo
[20] = Toxicity in male C57BL/6 mouse implanted with mouse B16-F10 cells assessed as effect on liver morphology at 25 to 100 mg/kg, ip administered once daily for 14 days by H and E staining based analysis; type: organism-based; settings: in vivo, 336 h, dose 25-100 mg/kg, time 14 day
[21] = AUC (0 to infinity) in male Sprague-Dawley rat at 100 mg/kg, po measured after 8 hrs by LC-MS analysis; type: ADME, organism-based; settings: in vivo
U-87 MG = assay: Cytotoxicity against human U87 cells assessed as reduction in cell viability at effective concentration incubated for 24 hrs by CCK8 assay; type: toxicity, cell-based; settings: u-87mg atcc
[22] = Cmax in male Sprague-Dawley rat at 2 mg/kg, iv measured after 8 hrs by LC-MS analysis; type: ADME, organism-based; settings: in vivo
[23] = Toxicity in male C57BL/6 mouse implanted with mouse B16-F10 cells assessed as effect on spleen morphology at 25 to 100 mg/kg, ip administered once daily for 14 days by H and E staining based analysis; type: organism-based; settings: in vivo, 336 h, dose 25-100 mg/kg, time 14 day
[24] = AUC (0 to t) in male Sprague-Dawley rat at 2 mg/kg, iv measured after 8 hrs by LC-MS analysis; type: ADME, organism-based; settings: in vivo
[25] = Volume of distribution in male Sprague-Dawley rat at 2 mg/kg, iv measured after 8 hrs by LC-MS analysis; type: ADME, organism-based; settings: in vivo
[26] = Volume of distribution in male Sprague-Dawley rat at 100 mg/kg, po measured after 8 hrs by LC-MS analysis; type: ADME, organism-based; settings: in vivo
[27] = target: T2, Tryptophan 2,3-dioxygenase; remark: listed apart in the source
Target sequence in this assay (P48775 whole entry): as above

[28] = target: T2, Tryptophan 2,3-dioxygenase; settings: dose 0.78-25 µM
Target sequence in this assay (P48775 whole entry, looked up): as the sequence (P48775 whole entry) above

[29] = Half-life in male Sprague-Dawley rat at 2 mg/kg, iv measured after 8 hrs by LC-MS analysis; type: ADME, organism-based; settings: in vivo
[30] = Tmax in male Sprague-Dawley rat at 2 mg/kg, iv measured after 8 hrs by LC-MS analysis; type: ADME, organism-based; settings: in vivo
[31] = Toxicity in male C57BL/6 mouse implanted with mouse B16-F10 cells assessed as effect on lung morphology at 25 to 100 mg/kg, ip administered once daily for 14 days by H and E staining based analysis; type: organism-based; settings: in vivo, 336 h, dose 25-100 mg/kg, time 14 day
[32] = AUC (0 to infinity) in male Sprague-Dawley rat at 20 mg/kg, ip measured after 8 hrs by LC-MS analysis; type: ADME, organism-based; settings: in vivo
[33] = Clearance in male Sprague-Dawley rat at 100 mg/kg, po measured after 8 hrs by LC-MS analysis; type: ADME, organism-based; settings: in vivo
B16-F10 [34] = assay: Antitumor activity against mouse B16-F10 cells implanted in male C57BL/6 mouse model assessed as suppression of tumor growth administered intraperitoneally once daily for 14 days; type: functional, cell-based; settings: dose 25-100 mg/kg, route ip, time 14.0 day
[35] = target: T1, Indoleamine 2,3-dioxygenase 1; assay: Inhibition of N-terminal His-tagged recombinant human IDO1 extracted from Escherichia coli Transetta (DE3) using L-tryptophan as substrate preincubated for 5 mins followed by substrate addition and measured after 1 hrs by absorbance based microplate reader
Target sequence in this assay (P14902 whole entry): as the sequence (P14902 whole entry, looked up) above

[36] = target: T2, Tryptophan 2,3-dioxygenase; remark: listed apart in the source
Target sequence in this assay (P48775 whole entry): as the sequence (P48775 whole entry) above

HEK-293T = assay: Cytotoxicity against HEK293T cells assessed as reduction in cell viability at effective concentration incubated for 24 hrs by CCK8 assay; type: toxicity, cell-based; settings: human
[37] = Half-life in male Sprague-Dawley rat at 20 mg/kg, ip measured after 8 hrs by LC-MS analysis; type: ADME, organism-based; settings: in vivo
[38] = AUC (0 to infinity) in male Sprague-Dawley rat at 2 mg/kg, iv measured after 8 hrs by LC-MS analysis; type: ADME, organism-based; settings: in vivo
[39] = Cmax in male Sprague-Dawley rat at 100 mg/kg, po measured after 8 hrs by LC-MS analysis; type: ADME, organism-based; settings: in vivo
[40] = Toxicity in male C57BL/6 mouse implanted with mouse B16-F10 cells assessed as effect on kidney morphology at 25 to 100 mg/kg, ip administered once daily for 14 days by H and E staining based analysis; type: organism-based; settings: in vivo, 336 h, dose 25-100 mg/kg, time 14 day
[41] = Toxicity in male C57BL/6 mouse implanted with mouse B16-F10 cells assessed as effect on liver morphology at 100 mg/kg, ip administered once daily for 14 days by H and E staining based analysis; type: organism-based; settings: in vivo, 336 h, time 14 day
[42] = Toxicity in male C57BL/6 mouse implanted with mouse B16-F10 cells assessed as effect on spleen morphology at 100 mg/kg, ip administered once daily for 14 days by H and E staining based analysis; type: organism-based; settings: in vivo, 336 h, time 14 day
[43] = Toxicity in male C57BL/6 mouse implanted with mouse B16-F10 cells assessed as body weight loss at 100 mg/kg, ip administered once daily for 14 days; type: organism-based; settings: in vivo, 336 h, time 14 day
[44] = Toxicity in male C57BL/6 mouse implanted with mouse B16-F10 cells assessed as effect on kidney morphology at 100 mg/kg, ip administered once daily for 14 days by H and E staining based analysis; type: organism-based; settings: in vivo, 336 h, time 14 day
[45] = Toxicity in male C57BL/6 mouse implanted with mouse B16-F10 cells assessed as effect on lung morphology at 100 mg/kg, ip administered once daily for 14 days by H and E staining based analysis; type: organism-based; settings: in vivo, 336 h, time 14 day
[46] = Toxicity in male C57BL/6 mouse implanted with mouse B16-F10 cells assessed as effect on heart morphology at 100 mg/kg, ip administered once daily for 14 days by H and E staining based analysis; type: organism-based; settings: in vivo, 336 h, time 14 day

## COc1ccc2cc(-c3ccc(NS(=O)(=O)C(F)(F)F)cc3)ncc2c1O
[1]
  AUC(0-t) at 8 h: 23300 ng·h/mL
[2]
  Activity: Non-Toxic
[3]
  Ka: 4.69 10^4/Ms
[4]
  IC50: 9.29 µM
HeLa
  Activity: Non-Toxic
[5]
  Tmax: 0.25 h
[6]
  AUC(0-t) at 8 h: 6690 ng·h/mL
[7]
  Vd: 5.17 L/kg
[8]
  bioavailability: 72.6%
[9]
  Kd: 0.45 µM
[10]
  koff: 0.021 s⁻¹
[11]
  IC50: 7.23 µM
[12]
  half-life: 2.8 h
[13]
  Tmax: 1.33 h
[14]
  Activity: Non-Toxic
[15]
  bioavailability: 61.9%
[16]
  CL/F: 50 mL/min/kg
[17]
  clearance: 37.6 mL/min/kg
B16-F10 [18]
  Activity: Non-Toxic
[19]
  Cmax: 11400 ng/mL
[20]
  Activity: Non-Toxic
[21]
  AUC(0-inf): 28400 ng·h/mL
U-87 MG
  Activity: Non-Toxic
[22]
  Cmax: 3420 ng/mL
[23]
  Activity: Non-Toxic
[24]
  AUC(0-t) at 8 h: 916 ng·h/mL
[25]
  Vd: 6.9 L/kg
[26]
  Vd: 14.376 L/kg
[27]
  Kd: 0.74 µM
[28]
  Ka: 4.9 10^4/Ms
[29]
  half-life: 2.14 h
[30]
  Tmax: 4.98 min
[31]
  Activity: Non-Toxic
[32]
  AUC(0-inf): 6660 ng·h/mL
[33]
  CL/F: 59.7 mL/min/kg
B16-F10 [34]
  Activity: Dose-Dependent Effect
[35]
  IC50: 0.31 µM
[36]
  IC50: 0.08 µM
HEK-293T
  Activity: Non-Toxic
[37]
  half-life: 1.2 h
[38]
  AUC(0-inf): 917 ng·h/mL
[39]
  Cmax: 5190 ng/mL
[40]
  Activity: Non-Toxic

## Cn1cc(C[C@H](N)C(=O)O)c2ccccc21 [(L)-1-METHYLTRYPTOPHAN]
[41]
  Activity: Non-Toxic
[42]
  Activity: Non-Toxic
[43]
  Activity: Non-Toxic
[44]
  Activity: Non-Toxic
[45]
  Activity: Non-Toxic
[46]
  Activity: Non-Toxic
